Reference: ChEMBL document CHEMBL4482324, “Ash1l inhibitors and methods of treatment therewith” (2017)

Target: Histone-lysine N-methyltransferase ASH1L (Homo sapiens, UniProt Q9NR48)
Assay: Inhibition of MOCR-fused ASH1L SET-BAH ( 2069 to 2833 amino acids) (unknown origin) expressed as in Escherichia coli BL21 (DE3) T1R cells using SAM and chicken mono/dinucleosomes incubated for 1 hr by scintillation counting assay

IC50 [µM] | Compound
< 20 | CCCNc1nnc(NCc2ccc3c(-c4cccc(C(N)=S)c4)cn(C4CCN(S(C)(=O)=O)CC4)c3c2)s1
> 100 | CN1c2ccccc2CCc2ccc(C(N)=S)cc21
< 20 | NC(=S)c1cccc(-c2cn(C3CCNCC3)c3cc(N)ccc23)c1
> 100 | Cc1cc(O)ccc1-c1cccc(C(N)=S)c1
< 20 | NC(=O)c1cccc(-c2cn(CC(CF)CF)c3cc(N)ccc23)c1
20 to 100 | NC(=S)c1cccc(-c2c[nH]c3cc(N)ccc23)c1
> 100 | NCc1ccc(-c2cccc(C(N)=S)c2)cc1
< 20 | NC(=S)c1cc(-c2cn(CC(CF)CF)c3cc(CO)ccc23)ccn1
< 20 | NC(=S)c1cccc(-c2cn(CC3C(F)(F)COCC3(F)F)c3cc(CO)ccc23)c1
< 20 | NC(=S)c1cc(-c2cn(CCC(F)F)c3cc(CO)ccc23)c[nH]1
< 20 | NC(=S)c1cccc(-c2cn(C3CCOCC3)c3cc(N)ccc23)c1
> 100 | NC(=S)c1cccc(-c2ccc(O)c3c2CCC3)c1
< 20 | NC(=S)c1cccc(-c2cn(C3CCCC3)c3cc(N)ccc23)c1
> 100 | NC(=O)c1cc2c(-c3cccc(C(N)=S)c3)cccc2[nH]1
< 20 | NC(=S)c1cccc(-c2cn(CC3CC(O)C(O)C3)c3cc(CO)ccc23)c1 (centres undefined)
> 100 | COc1c(C(N)=S)cccc1-c1ccc(O)cc1
20 to 100 | NC(=S)c1cccc(-c2cccc3nc(N)sc23)c1
< 20 | NC(=S)c1cc(-c2cn(CCC(F)F)c3cc(CO)ccc23)c2cc[nH]c2c1
< 20 | NC(=S)c1cccc(-c2cc(CCC(F)F)c3[nH]ccc3c2)c1
> 100 | NC(=S)c1cccc(-c2ccc(O)c(F)c2)c1
< 20 | NC(=S)c1cccc(-c2cn(CC(CO)CO)c3cc(N)ccc23)c1
20 to 100 | COC(=O)c1ccc2c(-c3cccc(C(N)=S)c3)c[nH]c2c1

IC50 [µM] | Compound
< 20 | NC(=S)c1cc(-c2cn(CCC(F)F)c3cc(CO)ccc23)ccn1
< 20 | NC(=S)c1ccc(F)c(-c2cn(CCCC(F)(F)F)c3cc(N)ccc23)c1
< 20 | NC(=S)c1cccc(-n2cc(CCC(F)F)c3cc(CO)ccc32)c1
> 100 | Cc1cc(-c2cccc(C(N)=S)c2)c(C)cc1O
< 20 | CS(=O)(=O)N1CCC(n2cc(-c3cccc(C(N)=S)c3)c3ccc(N)cc32)CC1
> 100 | NC(=S)c1cc(F)cc(-c2ccc(O)cc2)c1
< 20 | NC(=O)c1cccc(-c2cn(CCC(F)F)c3cc(CO)ccc23)c1
< 20 | CS(=O)(=O)N1CCC(n2cc(-c3cccc(C(N)=S)c3)c3ccc(Nc4nccs4)cc32)CC1
< 20 | NC(=S)c1cccc(-c2cn(CCC(F)F)c3cc(CO)ccc23)n1
20 to 100 | CNCc1ccc2c(-c3cccc(C(N)=S)c3)c[nH]c2c1
20 to 100 | COc1cc(C(N)=S)cc(-c2cn(CCCC(F)(F)F)c3cc(N)ccc23)c1
< 20 | CS(=O)(=O)N1CCC(n2cc(-c3cccc(C(N)=S)c3)c3ccc(CNC(=O)Cc4cc5ccccc5[nH]4)cc32)CC1
< 20 | NC(=S)c1cccc(-c2cn(CCCC(F)(F)F)c3cc(CNCc4c[nH]cn4)ccc23)c1
20 to 100 | NC(=S)c1cccc(-c2cccc3c2ccn3CO)c1
> 100 | NC(=S)c1ccnc(-n2cccc2)c1
< 20 | NC(=O)c1cccc(-c2cn(CCC(F)F)c3cc(N)ccc23)c1
< 20 | CCCS(=O)(=O)N1CCC(n2cc(-c3cccc(C(N)=S)c3)c3ccc(CNC(=O)Cc4cc(C)[nH]n4)cc32)CC1
> 100 | Cc1cc(C(N)=S)cc(-c2ccc(O)cc2)c1
20 to 100 | NC(=O)C1CCN(Cc2ccc3c(-c4cccc(C(N)=S)c4)cn(CCCC(F)(F)F)c3c2)CC1
< 20 | NC(=S)c1cccc(-c2cn(CC(CF)CF)c3cc(C(O)CO)ccc23)c1 (centres undefined)
> 100 | Cc1cc(C)n2c1C=C1C=CC(CCCCC(=O)NCCOCCOc3ccc(-c4cccc(C(N)=S)c4)c4cc[nH]c34)=[N+]1[B-]2(F)F
< 20 | CC1(Cn2cc(-c3cccc(C(N)=S)c3)c3ccc(CO)cc32)CC1

IC50 [µM] | Compound
> 100 | NC(=S)c1cccc(-c2cccc3c2ccn3CCO)c1
20 to 100 | CC(=O)NCc1ccc2c(-c3cccc(C(N)=S)c3)c[nH]c2c1
< 20 | NC(=S)c1cccc(-c2cn(C3CNC3)c3cc(CO)ccc23)c1
> 100 | NC(=S)c1cc(-c2ccc(O)cc2)ccc1F
20 to 100 | NC(=S)c1cccc(-c2c[nH]c3cc(CNC=O)ccc23)c1
< 20 | NC(=S)c1cccc(-c2cn(CC3CC3)c3cc(CO)ccc23)c1
13 | NCc1ccc2c(-c3cccc(C(N)=S)c3)cn(CCO)c2c1
< 20 | NC(=S)c1cccc(-c2c[nH]c3cc4cc[nH]c4cc23)c1
< 20 | NC(=S)c1cc(-c2cn(CCC(F)F)c3cc(CO)ccc23)c2scnc2c1
< 20 | NC(=S)c1cccc(-c2cn(C3CCC3)c3cc(CO)ccc23)c1
20 to 100 | NC(=S)c1cccc(-c2cn(CCO)c3cc([N+](=O)[O-])ccc23)c1
> 100 | NC(=S)c1cccc(Oc2ccccc2)c1
< 20 | NC(=S)c1cccc(-c2cn(CCC(F)F)c3cc(CO)ccc23)c1
> 100 | NC(=S)c1cncc(-c2cccc3[nH]ccc23)c1
< 20 | NC(=S)c1cccc(-c2cn(C3CCN(C(=O)CCCCc4cccc5c4C(=O)N(C4CCC(=O)NC4=O)C5=O)CC3)c3cc(CNc4nnc(N)s4)ccc23)c1 (centres undefined)
20 to 100 | Cc1ccc(C(N)=S)cc1-c1cn(C2CCOCC2)c2cc(N)ccc12
> 100 | NC(=S)c1cccc(-c2ccccc2)c1
< 20 | NCc1ccc2c(-c3cccc(C(N)=S)c3)cn(C3CCOCC3)c2c1
< 20 | NC(=S)c1cc(-c2cn(CCC(F)F)c3cc(CO)ccc23)ccc1O
20 to 100 | NC(=S)c1cccc(-c2c[nH]c3c(CO)cccc23)c1
22 | NCCn1cc(-c2cccc(C(N)=S)c2)c2ccccc21
> 100 | NC(=S)c1cccc(-c2ccccn2)c1

IC50 [µM] | Compound
> 100 | NC(=S)c1cccc(-c2cccc3[nH]c(CNCc4ccccc4)cc23)c1
< 20 | NC(=S)c1cccc(-c2cn(CCCC(F)(F)F)c3cc(CNC(=O)c4ccccc4)ccc23)c1
> 100 | NC(=S)c1cccc(-c2cccc3[nH]ccc23)n1
> 100 | O=C1NCc2c1cccc2-c1ccc(O)cc1
< 20 | NC(=S)c1cccc(-c2cn(CCC(F)F)c3cc(CNC(=O)C(F)(F)F)ccc23)c1
20 to 100 | CNc1ccc2c(-c3cccc(C(N)=S)c3)c[nH]c2c1
> 100 | NC(=S)c1ccc(-c2ccccc2)s1
< 20 | CCCS(=O)(=O)N1CCC(n2cc(-c3cccc(C(N)=S)c3)c3ccc(CNC(=O)COc4cccc5c4C(=O)N(C4CCC(=O)NC4=O)C5=O)cc32)CC1 (centres undefined)
< 20 | Cc1nc(CS(=O)(=O)NCc2ccc3c(-c4cccc(C(N)=S)c4)cn(C4CCN(S(C)(=O)=O)CC4)c3c2)cs1
20 to 100 | Cc1cc2c(-c3cccc(C(N)=S)c3)ccc(O)c2[nH]1
< 20 | NC(=S)c1cccc(-c2cc(CCC(F)F)c3cc[nH]c3c2)c1
< 20 | NC(=S)c1cccc(-c2cn(C3CCOCC3)c3cc(CNc4nnc(N)s4)ccc23)c1
< 20 | NC(=S)c1cccc(-c2cn(CCC(F)F)c3cc(CO)cc(F)c23)c1
< 20 | CC(O)c1ccc2c(-c3cccc(C(N)=S)c3)cn(CCC(F)F)c2c1 (centres undefined)
< 20 | CCCCn1cnc(CC(=O)NCc2ccc3c(-c4cccc(C(N)=S)c4)cn(C4CCOCC4)c3c2)c1
> 100 | Cc1c[nH]c2cccc(-c3cccc(C(N)=S)c3)c12
> 100 | NC(=S)c1cccc(-c2c[nH]c3cccnc23)c1
< 20 | NC(=S)c1cccc(-c2cn(CC3(O)CCC3)c3cc(CO)ccc23)c1
< 20 | NC(=S)c1cccc(-c2cn(CCCC(F)(F)F)c3cc(CNC(=O)CCc4c[nH]cn4)ccc23)c1
< 20 | NC(=S)c1cccc(-c2cn(C3CCCCC3)c3cc(CO)ccc23)c1
> 100 | NC(=S)c1ccc(N)c(-c2cccc3[nH]ccc23)c1
< 20 | NC(=S)c1cc(-c2cn(CCC(F)F)c3cc(CO)ccc23)c2[nH]cnc2c1

IC50 [µM] | Compound
< 20 | NC(=S)c1cccc(-c2ccc(CCC(F)F)c3[nH]c(CO)cc23)c1
< 20 | NC(=S)c1cccc(-c2cn(CC(CF)CF)c3cc(CF)ccc23)c1
< 20 | NC(=S)c1cccc(-c2cn(CCCC(F)(F)F)c3cc(CO)ccc23)c1
< 20 | NC(=S)c1cccc(-c2cn(CCCC(F)(F)F)c3cc(CNC(=O)c4cscn4)ccc23)c1
> 100 | NC(=S)c1cccc(-c2c[nH]c3cccc(O)c23)c1
< 20 | NC(=S)c1cccc(-c2cn(CCC(F)F)c3cc4cc[nH]c4cc23)c1
> 100 | COc1ccc(-c2cccc(C(N)=S)c2)cc1
< 20 | NC(=S)c1cccc(-c2cn(CCC(F)F)c3cc(CNc4c[nH]cn4)ccc23)c1
< 20 | NC(=S)c1cccc(-c2cn(C3CCOCC3)c3cc(-c4ccn[nH]4)ccc23)c1
< 20 | NC(=S)c1cccc(-c2cc(CC(CF)CF)c3cc[nH]c3c2)c1
< 20 | NC(=S)c1c[nH]c(=O)c(-c2cn(CCC(F)F)c3cc(CO)ccc23)c1
< 20 | NC(=S)c1cccc(-n2cc(CC(CF)CF)c3cc(CO)ccc32)c1
< 20 | Cc1ncsc1-c1ccc(CNC(=O)[C@@H]2C[C@@H](O)CN2C(=O)[C@@H](NC(=O)COCCOCCNC(=O)CCC(=O)Nc2ccc3c(-c4cccc(C(N)=S)c4)cn(CC(CF)CF)c3c2)C(C)(C)C)cc1
> 100 | NC(=S)c1cccc(-c2cccnc2)c1
20 to 100 | NC(=S)c1cccc(-c2cccc3[nH]ccc23)c1
> 100 | NC(=S)c1ccsc1
< 20 | NC(=S)c1cccc(-c2cn(CCC(F)F)c3cc4c(cc23)CCNC4)c1
< 20 | NC(=S)c1cccc(-c2cn(CC3CC3(F)F)c3cc(N)ccc23)c1 (centres undefined)
> 100 | COc1cc(C(N)=S)cc(-c2cccc3[nH]ccc23)c1
< 20 | CCCS(=O)(=O)N1CCC(n2cc(-c3cccc(C(N)=S)c3)c3ccc(CNc4nnc(N)s4)cc32)CC1

Compound | IC50 [µM]
CS(=O)(=O)N1C2CCC1CC(n1cc(-c3cccc(C(N)=S)c3)c3ccc(N)cc31)C2 (centres undefined) | < 20
